The test system of the assay is CaSki cells. Description: DNA solubilization assay (apoptosis). Format: cell-based, human. How it is done:
Twenty-four hours before the end of the experiment, cells were labeled with [^3H]thymidine (specific activity, 93 Ci/mmol; 5 μCi/1×10^6 cells) for 16 h. The medium was removed, and cells were washed three times with fresh medium lacking [^3H]thymidine and were incubated in the same medium for an additional 6 h. At the end of incubation, the supernatant was stored, and cells were lysed in 0.5 ml lysis buffer (10 mM Tris-HCl, pH 7.5; plus 1 mM EDTA-0.2% Triton X-100) for 1 h at 4° C. The intact chromatin was separated from the fragmented DNA by 5 min centrifugation at 4° C. in Eppendorf microcentrifuge at 12,000×g. The supernatant (lysate) was stored, while the pellet was resuspended in 0.5 ml of 1% sodium dodecyl sulfate (SDS). The radioactivity contained in the supernatants, lysates; and pellets was counted in a scintillation counter, and DNA fragmentation was calculated as: [% Solubilized DNA]=([cpm supernatant+cpm lysates]/[cpm supernatant+cpm lysate+cpm pellet])×100.

From US7767789B2, “Truncated proteins as cancer markers” (University Hopitals of Cleveland, priority 2005, dated 2010) come the findings set out here.

On to “2′-3′-O-(4-benzoylbenzoyl)adenosine 5′-triphosphate [BzATP]”, for which the DNA solubilization by setting is: (100 μM BzATP for 9 h, baseline 1.9%) 7.8%; (100 μM BzATP for 9 h or 10 μM TNFα for 14 h) “significantly increased DNA solubilization”.
